Results: PubChem BioAssay AID1918949 (Molecular Pharmacology Branch, DTP, NCI, 2023)
Where “and” joins values, the source holds several entries; their conditions need not be identical. Equal values may be shown once.

Tested on: K24384-001-R-PDC complex spheroid viability
Experiment: Anticancer human tumor K24384-001-R-PDC patient-derived pancreatic adenocarcinoma cell line growth inhibition
Conditions: for viability, T/C: stronger effect = lower value; active = viability on the fitted dose curve at most 10% of control; inactive = the rest
Outline: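 Drug combinations with the LSD1 inhibitor iadademstat tested on tumor cells co-cultured as spheroids with endothelial cells and mesenchymal stem cells. Concentrations descended in half-log increments from clinical Cmax or 10 microM.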

[1] = curve of first compound, second compound 0.1 µM
[2] = curve of first compound, second compound 0.316 µM
[3] = curve of first compound, second compound 1 µM
[4] = curve of first compound, second compound 3.16 µM
[5] = curve of first compound, second compound 10 µM
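Also: spheroids exposed to agents for seven days before luminescence viability reading.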
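For viability, T/C in this document: 100% = DMSO vehicle control viability.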

CC[C@@]1(O)C(=O)OCc2c1cc1n(c2=O)Cc2cc3c(CN(C)C)c(O)ccc3nc2-1 + NC1CC1c1ccc(-c2cccc(O)c2)cc1
10.4 nM: IC50 [1]
8.68 nM: IC50 [4]
12.1 nM: IC50 [2]
inactive: viability, T/C (second compound 0.1 µM, first compound 0.000316 µM) 72.3% | viability, T/C (second compound 0.1 µM, first compound 0.001 µM) 81.5% | viability, T/C (second compound 0.1 µM, first compound 0.00316 µM) 79.9% | viability, T/C (second compound 0.1 µM, first compound 0.01 µM) 50.3% | viability, T/C (second compound 0.1 µM, first compound 0.0316 µM) 43.7% | viability, T/C (second compound 0.1 µM, first compound 0.1 µM) 33.2% | viability, T/C (second compound 0.316 µM, first compound 0.000316 µM) 76.1% | viability, T/C (second compound 0.316 µM, first compound 0.001 µM) 90.1% | viability, T/C (second compound 0.316 µM, first compound 0.00316 µM) 62.9% | viability, T/C (second compound 0.316 µM, first compound 0.01 µM) 53.5% | viability, T/C (second compound 0.316 µM, first compound 0.0316 µM) 43.7% | viability, T/C (second compound 0.316 µM, first compound 0.1 µM) 35.9% | viability, T/C (second compound 1 µM, first compound 0.000316 µM) 78.5% | viability, T/C (second compound 1 µM, first compound 0.001 µM) 89% | viability, T/C (second compound 1 µM, first compound 0.00316 µM) 73.3% | viability, T/C (second compound 1 µM, first compound 0.01 µM) 49.8% | viability, T/C (second compound 1 µM, first compound 0.0316 µM) 33.5% | viability, T/C (second compound 1 µM, first compound 0.1 µM) 35.3% | viability, T/C (second compound 3.16 µM, first compound 0.000316 µM) 75.8% | viability, T/C (second compound 3.16 µM, first compound 0.001 µM) 79.2% | viability, T/C (second compound 3.16 µM, first compound 0.00316 µM) 77.6% | viability, T/C (second compound 3.16 µM, first compound 0.01 µM) 46.1% | viability, T/C (second compound 3.16 µM, first compound 0.0316 µM) 42% | viability, T/C (second compound 3.16 µM, first compound 0.1 µM) 33.9% | viability, T/C (second compound 10 µM, first compound 0.000316 µM) 79% | viability, T/C (second compound 10 µM, first compound 0.001 µM) 81.7% | viability, T/C (second compound 10 µM, first compound 0.00316 µM) 84.4% | viability, T/C (second compound 10 µM, first compound 0.01 µM) 51.1% | viability, T/C (second compound 10 µM, first compound 0.0316 µM) 40.9% | viability, T/C (second compound 10 µM, first compound 0.1 µM) 41.1%
9.47 nM: IC50 [3]
11.4 nM: IC50 [5]

Nc1ccccc1NC(=O)c1ccc(CNC(=O)OCc2cccnc2)cc1 + NC1CC1c1ccc(-c2cccc(O)c2)cc1
430 nM: IC50 [1]
inactive: viability, T/C (second compound 0.1 µM, first compound 0.00949 µM) 111% | viability, T/C (second compound 0.1 µM, first compound 0.03 µM) 113% | viability, T/C (second compound 0.1 µM, first compound 0.0949 µM) 118% | viability, T/C (second compound 0.1 µM, first compound 0.3 µM) 68.7% | viability, T/C (second compound 0.316 µM, first compound 0.00949 µM) 95.7% | viability, T/C (second compound 0.316 µM, first compound 0.03 µM) 121% | viability, T/C (second compound 0.316 µM, first compound 0.0949 µM) 115% | viability, T/C (second compound 0.316 µM, first compound 0.3 µM) 63.1% | viability, T/C (second compound 1 µM, first compound 0.00949 µM) 101% | viability, T/C (second compound 1 µM, first compound 0.03 µM) 112% | viability, T/C (second compound 1 µM, first compound 0.0949 µM) 115% | viability, T/C (second compound 1 µM, first compound 0.3 µM) 58.6% | viability, T/C (second compound 3.16 µM, first compound 0.00949 µM) 96.1% | viability, T/C (second compound 3.16 µM, first compound 0.03 µM) 117% | viability, T/C (second compound 3.16 µM, first compound 0.0949 µM) 109% | viability, T/C (second compound 3.16 µM, first compound 0.3 µM) 54% | viability, T/C (second compound 10 µM, first compound 0.00949 µM) 101% | viability, T/C (second compound 10 µM, first compound 0.03 µM) 110% | viability, T/C (second compound 10 µM, first compound 0.0949 µM) 95.6% | viability, T/C (second compound 10 µM, first compound 0.3 µM) 52.5%
389 nM: IC50 [2]
active: viability, T/C (second compound 0.1 µM, first compound 0.949 µM) 9.69% | viability, T/C (second compound 0.1 µM, first compound 3 µM) 0.15% | viability, T/C (second compound 0.316 µM, first compound 0.949 µM) 7.2% | viability, T/C (second compound 0.316 µM, first compound 3 µM) 0.13% | viability, T/C (second compound 1 µM, first compound 0.949 µM) 5.63% | viability, T/C (second compound 1 µM, first compound 3 µM) 0.16% | viability, T/C (second compound 3.16 µM, first compound 0.949 µM) 3.27% | viability, T/C (second compound 3.16 µM, first compound 3 µM) 0.11% | viability, T/C (second compound 10 µM, first compound 0.949 µM) 3.08% | viability, T/C (second compound 10 µM, first compound 3 µM) 0.17%
328 nM: IC50 [4]
312 nM: IC50 [5]
358 nM: IC50 [3]

O=C(C=Cc1cccc(S(=O)(=O)Nc2ccccc2)c1)NO
inactive: viability, T/C (compound 0.00949 µM) 120% and 101% | viability, T/C (compound 0.03 µM) 127% and 112% | viability, T/C (compound 0.0949 µM) 114% and 105% | viability, T/C (compound 0.3 µM) 38% and 43.9%
250 nM and 268 nM: IC50 (curve of compound)
active: viability, T/C (compound 0.949 µM) 4.5% and 5.62% | viability, T/C (compound 3 µM) 0.23% and 0.24%
